target: Human immunodeficiency virus type 1 protease (Human immunodeficiency virus 1, UniProt Q72874); test: Inhibition of human immunodeficiency virus type 1 (HIV-1) protease enzyme.

IC50 [nM] | Structure (SMILES)
0.178 | CC(C)(C)OC(=O)N[C@@H](Cc1ccccc1)[C@@H](O)C[C@@H](Cc1ccccc1)C(=O)NC1c2ccccc2OC[C@@H]1O (stereo in doubt; 26)
0.191 | CC(C)(C)OC(=O)N[C@@H](Cc1ccccc1)[C@@H](O)C[C@@H](CCCc1ccccc1)C(=O)NC1c2ccccc2C(O)[C@@H]1O (stereo partly specified)
2950 | CC(C)(C)OC(=O)N[C@@H](Cc1ccccc1)[C@@H](O)CCC(=O)NC1c2ccccc2C[C@@H]1O (stereo partly specified)
0.692 | O=C(NC1c2ccccc2C[C@@H]1O)[C@H](Cc1ccccc1)CC(O)C[C@@H](Cc1ccccc1)C(=O)NC1c2ccccc2C[C@@H]1O (stereo partly specified)
0.525 | CC(C)(C)OC(=O)N[C@@H](Cc1ccccc1)[C@@H](O)C[C@@H](Cc1ccncc1)C(=O)NC1c2ccccc2C[C@@H]1O (stereo partly specified)
33.9 | CC(C)(C)OC(=O)N[C@@H](Cc1ccccc1)[C@@H](O)C[C@@H](Cc1ccccc1)C(=O)NC1CCc2ccccc21 (stereo partly specified)
9.55 | CC(C)(C)OC(=O)N[C@@H](Cc1ccccc1)[C@@H](O)C[C@@H](Cc1ccccc1)C(=O)NC1C=CC[C@@H]1O (stereo partly specified)
66.1 | COC(=O)C1Cc2ccccc2C1NC(=O)[C@H](Cc1ccccc1)C[C@H](O)[C@H](Cc1ccccc1)NC(=O)OC(C)(C)C (stereo partly specified)
562 | CC(C)(C)OC(=O)N[C@@H](Cc1ccccc1)[C@@H](O)CC(=O)NC1c2ccccc2C[C@@H]1O (stereo partly specified)
0.603 | CC(C)(C)OC(=O)N[C@@H](Cc1ccccc1)[C@@H](O)C[C@@H](Cc1c(F)c(F)c(F)c(F)c1F)C(=O)NC1c2ccccc2C[C@@H]1O (stereo partly specified)
40.7 | CC(C)(C)OC(=O)N[C@@H](Cc1ccccc1)[C@@H](O)C[C@@H](Cc1ccccc1)C(=O)NC1c2ccccc2OC[C@@H]1O (stereo in doubt; 27)

Further lines, the compound ahead of its results:

Structure (SMILES) | IC50 [nM]
CC(C)(C)OC(=O)NC(Cc1ccccc1)[C@@H](O)CC(CSc1ccccc1)C(=O)NC1c2ccccc2C[C@@H]1O (stereo partly specified) | 0.251
CC(C)(C)OC(=O)NC(Cc1ccccc1)[C@@H](O)CC(Cc1ccc([N+](=O)[O-])cc1)C(=O)NC1c2ccccc2C[C@@H]1O (stereo partly specified) | 0.269
CC(C)(C)OC(=O)NC(Cc1ccccc1)[C@@H](O)CC(Cc1ccc(N)cc1)C(=O)NC1c2ccccc2C[C@@H]1O (stereo partly specified) | 0.309
CC(C)(C)OC(=O)N[C@@H](Cc1ccc(O)cc1)[C@@H](O)C1CCCC1C(=O)NCc1ccccc1 (stereo partly specified) | 589
Cc1ccc(C[C@H](C[C@H](O)[C@H](Cc2ccccc2)NC(=O)OC(C)(C)C)C(=O)NC2c3ccccc3C[C@@H]2O)cc1 (stereo partly specified) | 0.288
CC(C)(C)OC(=O)N[C@@H](Cc1ccccc1)[C@@H](O)C[C@H](C(=O)NC1c2ccccc2C[C@@H]1O)C(=O)c1ccccc1 (stereo partly specified) | 5.37
O=C(N[C@@H](Cc1ccccc1)[C@@H](O)C[C@@H](Cc1ccccc1)C(=O)NC1c2ccccc2C[C@@H]1O)OC1CCOC1 (stereo partly specified) | 0.0603
CC(C)(C)OC(=O)N[C@@H](Cc1ccccc1)[C@@H](O)C[C@@H](Cc1ccccc1)C(=O)NC1c2ccccc2C[C@@H]1O (stereo partly specified) | 0.251
CC(C)(C)OC(=O)N[C@@H](Cc1ccccc1)[C@@H](O)C[C@@H](C/C=C/c1ccccc1)C(=O)NC1c2ccccc2C[C@@H]1O (stereo partly specified) | 0.229
C=CC[C@H](C[C@H](O)[C@H](Cc1ccccc1)NC(=O)OC(C)(C)C)C(=O)NC1c2ccccc2C[C@@H]1O (stereo partly specified) | 27.5
CC(C)(C)OC(=O)N[C@@H](Cc1ccccc1)[C@@H](O)C[C@@H](Cc1ccccc1)C(=O)NC1c2ccccc2C(O)[C@@H]1O (stereo partly specified) | 0.1
CC(C)(C)OC(=O)N[C@@H](Cc1ccccc1)[C@@H](O)C[C@@H](Cc1ccc(C(F)(F)F)cc1)C(=O)NC1c2ccccc2C[C@@H]1O (stereo partly specified) | 0.257
CC(C)(C)OC(=O)N[C@@H](Cc1ccccc1)[C@@H](O)/C=C(/Cc1ccccc1)C(=O)NC1c2ccccc2C[C@@H]1O (stereo partly specified) | 1.29
CC(C)(C)OC(=O)N[C@@H](Cc1ccccc1)[C@@H](O)C[C@@H](Cc1ccc(O)cc1)C(=O)NC1c2ccccc2C[C@@H]1O (stereo partly specified) | 0.158
CC(C)(C)OC(=O)N[C@@H](Cc1ccccc1)[C@@H](O)CC1(Cc2ccccc2)CCCN(C2c3ccccc3C[C@@H]2O)C1=O (stereo partly specified) | 1260

Reference: ChEMBL document CHEMBL1133448, “Computational studies on HIV-1 protease inhibitors: influence of calculated inhibitor-enzyme binding affinities on the statistical quality of 3D-QSAR CoMFA models” (J Med Chem, 2000)
